Results taken from PubChem BioAssay (NCI).
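1) Cells in 96-well plates. 2) Compound, 48 h, 5 concentrations. 3) Linear interpolation between surrounding doses. 4) Unreached endpoint = highest concentration. At the TGI there is no net growth.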

Assays:
Assay in all cases: DTP human tumour cell line panel, 48 h
SK-MEL-2 melanoma = system: SK-MEL-2 melanoma
OVCAR-4 ovarian = system: OVCAR-4 ovarian
HOP-62 NSCLC = system: HOP-62 NSCLC
U251 CNS = system: U251 CNS
HS 578T breast = system: HS 578T breast
NCI-H460 lung = system: NCI-H460 lung
COLO 205 colon = system: COLO 205 colon
HCT-15 colon = system: HCT-15 colon
IGROV1 ovarian = system: IGROV1 ovarian
EKVX NSCLC = system: EKVX NSCLC
SW-620 colon = system: SW-620 colon
SK-OV-3 ovarian = system: SK-OV-3 ovarian
DU-145 prostate = system: DU-145 prostate
SF-539 CNS = system: SF-539 CNS
BT-549 breast = system: BT-549 breast
PC-3 prostate = system: PC-3 prostate
HCT-116 colon = system: HCT-116 colon
NCI-H522 lung = system: NCI-H522 lung
SNB-75 CNS = system: SNB-75 CNS
UACC-257 melanoma = system: UACC-257 melanoma
NCI-H23 lung = system: NCI-H23 lung
786-0 renal = system: 786-0 renal
SR leukemia = system: SR leukemia
SNB-19 CNS = system: SNB-19 CNS
ACHN renal = system: ACHN renal
MDA-MB-231 breast = system: MDA-MB-231 breast
KM12 colon = system: KM12 colon
K-562 leukemia = system: K-562 leukemia
A549 NSCLC = system: A549 NSCLC
CCRF-CEM leukemia = system: CCRF-CEM leukemia
SF-295 CNS = system: SF-295 CNS
MOLT-4 leukemia = system: MOLT-4 leukemia
OVCAR-3 ovarian = system: OVCAR-3 ovarian
RPMI-8226 leukemia = system: RPMI-8226 leukemia
TK-10 renal = system: TK-10 renal
M14 melanoma = system: M14 melanoma
CAKI-1 renal = system: CAKI-1 renal
OVCAR-5 ovarian = system: OVCAR-5 ovarian
T-47D breast = system: T-47D breast
SF-268 CNS = system: SF-268 CNS
UO-31 renal = system: UO-31 renal
SK-MEL-5 melanoma = system: SK-MEL-5 melanoma
MCF7 breast = system: MCF7 breast
MDA-MB-435 = system: MDA-MB-435
LOX IMVI melanoma = system: LOX IMVI melanoma
A498 renal = system: A498 renal
SK-MEL-28 melanoma = system: SK-MEL-28 melanoma
HL-60(TB) leukemia = system: HL-60(TB) leukemia
HCC-2998 colon = system: HCC-2998 colon
UACC-62 melanoma = system: UACC-62 melanoma
MDA-N = system: MDA-N
SN12C renal = system: SN12C renal
HOP-92 NSCLC = system: HOP-92 NSCLC
NCI-H226 lung = system: NCI-H226 lung
MALME-3M melanoma = system: MALME-3M melanoma
NCI/ADR-RES ovarian = system: NCI/ADR-RES ovarian
HT29 colon = system: HT29 colon
OVCAR-8 ovarian = system: OVCAR-8 ovarian

C/C=C1\CN2CCC34c5ccccc5N(C)C35OCC4(C(=O)OC)C1CC25 (stereo unspecified)
TGI (SK-MEL-2 melanoma): > 100 µM
TGI (OVCAR-4 ovarian): > 100 µM
TGI (HOP-62 NSCLC): > 100 µM
TGI (U251 CNS): > 100 µM
TGI (HS 578T breast): > 100 µM
TGI (NCI-H460 lung): 64.8 µM
TGI (COLO 205 colon): 31.5 µM
TGI (HCT-15 colon): > 100 µM
TGI (IGROV1 ovarian): > 100 µM
TGI (EKVX NSCLC): > 100 µM
TGI (SW-620 colon): > 100 µM
TGI (SK-OV-3 ovarian): > 100 µM
TGI (DU-145 prostate): > 100 µM
TGI (SF-539 CNS): > 100 µM
TGI (BT-549 breast): > 100 µM
TGI (PC-3 prostate): > 100 µM
TGI (HCT-116 colon): > 100 µM
TGI (NCI-H522 lung): > 100 µM
TGI (SNB-75 CNS): > 100 µM
TGI (UACC-257 melanoma): > 100 µM
TGI (NCI-H23 lung): > 100 µM
TGI (786-0 renal): > 100 µM
TGI (SR leukemia): > 100 µM
TGI (SNB-19 CNS): > 100 µM
TGI (ACHN renal): > 100 µM
TGI (MDA-MB-231 breast): > 100 µM
TGI (KM12 colon): > 100 µM
TGI (K-562 leukemia): > 100 µM
TGI (A549 NSCLC): > 100 µM
TGI (CCRF-CEM leukemia): > 100 µM
TGI (SF-295 CNS): > 100 µM
TGI (MOLT-4 leukemia): > 100 µM
TGI (OVCAR-3 ovarian): > 100 µM
TGI (RPMI-8226 leukemia): > 100 µM
TGI (TK-10 renal): > 100 µM
TGI (M14 melanoma): 45.4 µM
TGI (CAKI-1 renal): > 100 µM
TGI (OVCAR-5 ovarian): > 100 µM
TGI (T-47D breast): 75.7 µM
TGI (SF-268 CNS): > 100 µM
TGI (UO-31 renal): > 100 µM
TGI (SK-MEL-5 melanoma): 33.5 µM
TGI (MCF7 breast): > 100 µM
TGI (MDA-MB-435): > 100 µM
TGI (LOX IMVI melanoma): 58.3 µM
TGI (A498 renal): > 100 µM
TGI (SK-MEL-28 melanoma): > 100 µM
TGI (HL-60(TB) leukemia): 78.3 µM
TGI (HCC-2998 colon): 29.1 µM
TGI (UACC-62 melanoma): > 100 µM
TGI (MDA-N): > 100 µM
TGI (SN12C renal): > 100 µM
TGI (HOP-92 NSCLC): > 100 µM

FC(F)(F)c1cccc(COCCN2CCN(Cc3cccc(C(F)(F)F)c3)CC2)c1
TGI (OVCAR-4 ovarian): 32.1 µM
TGI (HOP-62 NSCLC): 42.1 µM
TGI (U251 CNS): 34.5 µM
TGI (HS 578T breast): 38.2 µM
TGI (NCI-H460 lung): 34.7 µM
TGI (COLO 205 colon): 42.3 µM
TGI (HCT-15 colon): 31.5 µM
TGI (NCI-H226 lung): 35.8 µM
TGI (IGROV1 ovarian): 30.3 µM
TGI (EKVX NSCLC): 23.4 µM
TGI (SW-620 colon): 28.3 µM
TGI (SK-OV-3 ovarian): 31.1 µM
TGI (DU-145 prostate): 32.4 µM
TGI (SF-539 CNS): 39 µM
TGI (BT-549 breast): 29.6 µM
TGI (PC-3 prostate): 21.7 µM
TGI (HCT-116 colon): 34.9 µM
TGI (NCI-H522 lung): 26.5 µM
TGI (SNB-75 CNS): 26.3 µM
TGI (UACC-257 melanoma): 35.5 µM
TGI (NCI-H23 lung): 41.1 µM
TGI (786-0 renal): 29.5 µM
TGI (MALME-3M melanoma): 22.5 µM
TGI (SR leukemia): > 100 µM
TGI (SNB-19 CNS): 29.4 µM
TGI (ACHN renal): 29.1 µM
TGI (NCI/ADR-RES ovarian): 39.1 µM
TGI (MDA-MB-231 breast): 44.7 µM
TGI (KM12 colon): 35.8 µM
TGI (K-562 leukemia): > 100 µM
TGI (A549 NSCLC): 30.9 µM
TGI (CCRF-CEM leukemia): 46.6 µM
TGI (SF-295 CNS): 37.5 µM
TGI (MOLT-4 leukemia): 41.9 µM
TGI (OVCAR-3 ovarian): 42.9 µM
TGI (TK-10 renal): 27.4 µM
TGI (M14 melanoma): 94.6 µM
TGI (CAKI-1 renal): 31.3 µM
TGI (OVCAR-5 ovarian): 31.6 µM
TGI (T-47D breast): 39.1 µM
TGI (SF-268 CNS): 30.3 µM
TGI (UO-31 renal): 24.9 µM
TGI (SK-MEL-5 melanoma): 29.4 µM
TGI (MCF7 breast): 31.7 µM
TGI (HT29 colon): 44.6 µM
TGI (OVCAR-8 ovarian): 41.2 µM
TGI (A498 renal): 28.8 µM
TGI (SK-MEL-28 melanoma): 34.6 µM
TGI (HL-60(TB) leukemia): > 100 µM
TGI (HCC-2998 colon): 32.7 µM
TGI (UACC-62 melanoma): 28.6 µM
TGI (MDA-N): 34.4 µM
TGI (SN12C renal): 33 µM
